The test system of data set [1] is IL-6. As to the kind of experiment: IL-6 secretion by LPS-challenged J774 macrophages incubated with hydrogels. It counts as cell-based, murine. On the procedure:
(§1) J774 macrophages were pre-conditioned for 30 min. with the gels and were then challenged with 100 ng/ml LPS. 3T3 cells were not challenged with bacteria. Next, the murine macrophage J774 and murine fibroblast 3T3 cells were incubated with the gels for 16 h at 37° C., 5% CO2. Hereafter, the medium was collected, centrifuged at 14,000 rpm during 20 min to remove particulate material and assayed for the indicated secreted proteins. Results are the mean of two independent experiments and are expressed as percentages of the control experiment.
(§2) A hydrogel was made by dissolving 2 g Kelset (Na^+—Ca^++ alginate) and 5 g PEG400 in a final volume of 100 ml growth medium [DMEM high glucose, 10% FCS, 4 mM L-Glutamine, antibiotics]. This mixture was further diluted with an additional 100 ml of growth medium to lower the viscosity of the solutions. The final concentration of PEG400 was 2.5%.
(§3) A hydrogel was made by dissolving 1 g Carbopol (polyacrylate), 5 g PEG400, 2.1 g Arginine and 3 g PCL (cetearyl octanoate) in a total volume of 100 ml growth medium [DMEM(high glucose), 10% FCS, 4 mM L-Glutamine, antibiotics]. This mixture was further diluted with an additional 100 ml of growth medium to lower the viscosity of the solutions. Cultures of murine macrophages J774 were used. The final concentration of PEG400 in contact with the cells was 2.5%. A similar solution without PEG400 was used as control.
(§4) A hydrogel was made by dissolving 3 g CMC ([…]), and 5 g PEG400 in a final volume of 100 ml growth medium [DMEM(high glucose), 10% FCS/4 mM L-Glutamine, antibiotics]. This mixture was further diluted with an additional 100 ml of growth medium to lower the viscosity of the solutions. Cultures of murine macrophages J774 were used. The final concentration of PEG400 was 2.5%. A similar solution without PEG400 was used as control.

Data set [2] has as its system VEGF. As to the kind of experiment: VEGF expression by vascular endothelial cells (SVEC). It counts as cell-based. The source says: (§5) The expression of VEGF upon administration of PEG and/or other humectants was investigated on vascular endothelial cells (SVEC) and on fibroblast cells (3T3). The beneficial role of VEGF expression in the healing of ischemic wounds is described in Corrall et al. (1999) Arch. Surg. 134, 200-205.

Data set [3] concerns VEGF. As to the kind of experiment: VEGF expression by fibroblasts (ELISA). It counts as cell-based, murine. As to conditions: overnight.
A further data set has as its system Collagen type III. Briefly: Collagen III expression by 3T3 fibroblast cells. It counts as cell-based, murine. As to conditions: 3T3 cells. The source says: This increase of collagen III expression was significant compared to control.
In data set [4] the test system is VEGF. As to the kind of experiment: VEGF expression by fibroblast cells (3T3), comparison of humectants. It counts as cell-based, murine. The settings on record: 3T3 fibroblast cells.
Excerpt: as §5

Another data set concerns pro-MMP9. Briefly: pro-MMP9 secretion by LPS-challenged J774 macrophages incubated with hydrogels. It counts as cell-based, murine. As for the experimental part:
as §1, §2, §3, §4

The next data set has as its system proMMP-9. As to the kind of experiment: proMMP-9 secretion by J774 macrophages challenged with heat inactivated E. coli. Format: cell-based, murine. On the procedure: Macrophage cells were pre-conditioned for 30 min. with varying concentrations of PEG400 (0.31-10% w/w) and then challenged with heat inactivated E. coli bacteria. Next, cells were further incubated overnight. The supernatant of cells was analyzed for proMMP-9 according to the manufacturer's indications (R&D systems, Abingdon, UK).

Another data set deals with HaCat keratinocytes. As to the kind of experiment: Toxicity of PEG on cultivated cells (tetrazolium cell survival). It counts as cell-based. As for the experimental part:
(§6) Cells were grown in DMEM (3T3 fibroblasts and HaCat keratinocytes) or in RPMI1640 (J774 macrophages). Both media were supplemented with heat inactivated 10% Fetal Calf Serum (Sigma), 2 mM L-Glutamine (Sigma) and antibiotics (Sigma). Cells were seeded subconfluent in 96 well plates and contacted for about 16 hours with PEG test compounds which were dissolved in growth media (expressed as w/w end concentrations).
(§7) Cell survival was assayed by the conversion of soluble tetrazolium salt into an insoluble and pink colored formazan (absorption measured at 570 nm).
(§8) Cells were incubated overnight with varying concentrations of PEG 400 (0.31-10% w/w). From 5% onwards, PEG has a cytotoxic effect on in vitro cultivated cells, especially on keratinocytes (FIG. 1A) and on macrophages (FIG. 1B), and to a lesser extent on fibroblasts (FIG. 1C).

Another data set has as its system 3T3 fibroblasts. Described as above. It counts as cell-based, murine. As for the experimental part:
as §6, §7, §8

A further data set has as its system J774 macrophages. The description is as above. Format: cell-based, murine. On the procedure:
as §6, §7, §8

Data set [5] deals with VEGF. As to the kind of experiment: VEGF expression in 3T3 cells incubated with hydrogel. It counts as cell-based, murine. The settings on record: Na+-Ca++ alginate gel with 2.5% PEG400 vs gel without PEG400, 16 h. On the procedure: as §1, §2
(§9) A similar solution without PEG400 was used as control.

Data set [6] deals with IL-6. As to the kind of experiment: IL-6 expression in 3T3 cells incubated with hydrogel. Format: cell-based, murine. As to conditions: Na+-Ca++ alginate gel with 2.5% PEG400 vs gel without PEG400, 16 h. As for the experimental part:
as §1, §2, §9

For data set [7], the system named is IL-6. As to the kind of experiment: IL-6 expression by J774 macrophages after heat inactivated E. coli stimulation. Format: cell-based, murine. As to conditions: J774 cells, with vs without PEG. On the procedure:
The cells were cultured with or without PEG (PEG600 diacid) The expression of IL-6 is lowered by about 30% when PEG is added.

[8] abbreviates: J774, alginate gel, 2.5% PEG400, 100 ng/ml LPS.
Where [9] appears, read: J774, carboxymethylcellulose gel, 2.5% PEG400, 100 ng/ml LPS.
Where [10] appears, read: J774, polyacrylate (Carbopol) gel, 2.5% PEG400, LPS.
[11] abbreviates: overnight incubation, PEG 400 0.31-10% w/w.

For the substance Polyethylene glycol [PEG 400], in the data set on IL-6 [1] (setting [8]), the “secretion of IL-6” value is recorded as “reduced”. Further, the “expression of IL-6” value with IL-6 [1] (setting [9]) is given as “clearly reduced”; in the data set on IL-6 [1] (setting [10]) it was “reduced”. Further, the “VEGF expression compared with 4% propylene glycol and 4% glycerol” value with VEGF [2] and in the data set with VEGF [4] was “highest expression” in each case. For the same substance, in the data set with VEGF [3] (fibroblasts, 0.31-10% w/w tested), the “PEG400 concentration of maximum VEGF expression” value came out at 5%. The VEGF expression entry in the data set on VEGF [3] (fibroblasts, PEG400 concentrations between 2% and 10%) is reported as “increases”; with VEGF [5], “slightly increased”. Also, the “collagen III expression compared with 4% propylene glycol and 4% glycerol” value with Collagen type III was “highest expression”. Besides, the “increase of collagen III expression compared to control” value with Collagen type III (4%) is listed as “significant”. For the same substance, in the data set with pro-MMP9 (setting [8]), the “secretion of pro-MMP9” value is recorded as “reduced”. Further, the “expression of pro-MMP9” value in the data set with pro-MMP9 (setting [9]) is “less reduced”; in the data set with pro-MMP9 (setting [10]), “reduced”. Also, in the data set with proMMP-9 (J774, PEG 400 concentration from about up to roughly 1% (w/w), 30 min pre-conditioning, heat inactivated E. coli, overnight), the “secretion of proMMP9” value is listed as “significantly reduced”. Further, the “effect on cell survival” value is “no detrimental effect” in the data set with HaCat keratinocytes (keratinocytes, concentrations below 5%); “no detrimental effect” in the data set on 3T3 fibroblasts (concentrations below 5%); “no detrimental effect” in the data set on J774 macrophages (concentrations below 5%). Besides, the “concentration from which PEG has a cytotoxic effect” value with HaCat keratinocytes (keratinocytes, overnight incubation, PEG 400 0.31-10% w/w) is at least 5%; in the data set on 3T3 fibroblasts (setting [11]), at least 5%; in the data set with J774 macrophages (setting [11]), at least 5%. Besides, the “concentration from which PEG400 is cytotoxic (summary statement)” value in the data set on HaCat keratinocytes (summary of Example 1, cell type not specified) was ≥ 5 % (w/w). Moreover, the IL-6 expression result with IL-6 [6] is “decreased”.

Regarding PEG 600 diacid, the “lowering of IL-6 expression” value in the data set on IL-6 [7] was “about 30%”. In addition, the VEGF expression result with VEGF [3] (3T3 fibroblasts, increasing amounts 0.078-0.625% w/w) was “influenced”. Besides, the pro-MMP9 expression result in the data set with proMMP-9 (J774 cells challenged with heat inactivated E. coli after 30 min pre-incubation) was “lowered”.

For the origin of these results see US20090317474A1, “USE OF POLYETHYLENE GLYCOL IN INFLAMMATION RELATED TOPICAL DISORDERS OR DISEASES AND WOUND HEALING” (Flen Pharma N.V., priority 2006, published 2009).
